The record followed here is PMC10382584, “Macrocyclization of linear molecules by deep learning to facilitate macrocyclic drug candidates discovery” (Nature Communications, 2023).

Targets include ACVR2B (Homo sapiens, UniProt Q13705); LYN (Homo sapiens, UniProt P07948); ALK(C1156Y) (Homo sapiens, UniProt Q9UM73, C1156Y); FLT3 (Homo sapiens, UniProt P36888); MYO3A (Homo sapiens, UniProt Q8NEV4); LTK (Homo sapiens, UniProt P29376); DYRK1B (Homo sapiens, UniProt Q9Y463).
Assay in all cases: biochemical
What all share (design): DiscoveRx KINOMEscan competition binding, percent of DMSO control signal at 100 nM
Holding throughout (conditions): read-out: Fig. 4a / Percent Control / Compound 1; percent of DMSO control, competition binding

LYN, sequence (P07948 whole entry): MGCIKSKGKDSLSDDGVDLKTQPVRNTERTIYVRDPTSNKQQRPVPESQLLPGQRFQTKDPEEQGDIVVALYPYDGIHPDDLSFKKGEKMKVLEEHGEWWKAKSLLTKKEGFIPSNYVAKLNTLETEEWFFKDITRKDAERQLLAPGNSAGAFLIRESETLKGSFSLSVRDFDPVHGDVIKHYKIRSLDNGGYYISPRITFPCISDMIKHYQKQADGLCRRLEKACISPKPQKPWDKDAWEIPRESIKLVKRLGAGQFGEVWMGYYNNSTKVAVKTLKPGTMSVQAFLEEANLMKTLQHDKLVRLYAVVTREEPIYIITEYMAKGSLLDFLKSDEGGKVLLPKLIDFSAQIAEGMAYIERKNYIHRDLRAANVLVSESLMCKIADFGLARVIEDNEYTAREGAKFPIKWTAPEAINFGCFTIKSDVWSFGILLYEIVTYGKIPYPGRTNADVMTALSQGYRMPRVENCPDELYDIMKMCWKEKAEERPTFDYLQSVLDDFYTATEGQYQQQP
FLT3, sequence (P36888 whole entry): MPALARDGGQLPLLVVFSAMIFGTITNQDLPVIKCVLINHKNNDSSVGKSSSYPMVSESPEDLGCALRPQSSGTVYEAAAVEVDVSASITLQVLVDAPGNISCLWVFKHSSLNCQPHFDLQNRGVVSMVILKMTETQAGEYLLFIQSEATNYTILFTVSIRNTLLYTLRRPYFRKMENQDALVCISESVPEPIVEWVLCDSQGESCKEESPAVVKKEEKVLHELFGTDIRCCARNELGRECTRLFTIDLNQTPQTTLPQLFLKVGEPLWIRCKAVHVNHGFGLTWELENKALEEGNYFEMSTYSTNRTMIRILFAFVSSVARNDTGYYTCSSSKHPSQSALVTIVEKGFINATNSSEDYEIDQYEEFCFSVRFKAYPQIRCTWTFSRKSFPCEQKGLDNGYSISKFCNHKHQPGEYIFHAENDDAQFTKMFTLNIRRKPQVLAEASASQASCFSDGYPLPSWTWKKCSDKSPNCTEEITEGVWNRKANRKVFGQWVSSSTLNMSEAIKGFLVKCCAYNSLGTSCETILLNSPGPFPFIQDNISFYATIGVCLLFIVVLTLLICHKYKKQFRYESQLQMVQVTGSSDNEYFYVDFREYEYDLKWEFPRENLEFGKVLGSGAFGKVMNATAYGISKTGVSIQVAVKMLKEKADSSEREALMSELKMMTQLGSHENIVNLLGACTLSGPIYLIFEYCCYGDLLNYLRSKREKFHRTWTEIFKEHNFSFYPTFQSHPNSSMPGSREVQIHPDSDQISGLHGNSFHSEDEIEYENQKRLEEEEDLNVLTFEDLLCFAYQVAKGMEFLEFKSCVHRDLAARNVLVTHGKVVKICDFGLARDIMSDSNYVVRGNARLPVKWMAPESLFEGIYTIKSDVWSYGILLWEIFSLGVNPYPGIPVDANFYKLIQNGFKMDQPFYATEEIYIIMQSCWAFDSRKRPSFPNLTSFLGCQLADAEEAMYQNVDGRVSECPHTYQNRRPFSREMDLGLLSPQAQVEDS
ALK(C1156Y), sequence (Q9UM73 whole entry C1156Y): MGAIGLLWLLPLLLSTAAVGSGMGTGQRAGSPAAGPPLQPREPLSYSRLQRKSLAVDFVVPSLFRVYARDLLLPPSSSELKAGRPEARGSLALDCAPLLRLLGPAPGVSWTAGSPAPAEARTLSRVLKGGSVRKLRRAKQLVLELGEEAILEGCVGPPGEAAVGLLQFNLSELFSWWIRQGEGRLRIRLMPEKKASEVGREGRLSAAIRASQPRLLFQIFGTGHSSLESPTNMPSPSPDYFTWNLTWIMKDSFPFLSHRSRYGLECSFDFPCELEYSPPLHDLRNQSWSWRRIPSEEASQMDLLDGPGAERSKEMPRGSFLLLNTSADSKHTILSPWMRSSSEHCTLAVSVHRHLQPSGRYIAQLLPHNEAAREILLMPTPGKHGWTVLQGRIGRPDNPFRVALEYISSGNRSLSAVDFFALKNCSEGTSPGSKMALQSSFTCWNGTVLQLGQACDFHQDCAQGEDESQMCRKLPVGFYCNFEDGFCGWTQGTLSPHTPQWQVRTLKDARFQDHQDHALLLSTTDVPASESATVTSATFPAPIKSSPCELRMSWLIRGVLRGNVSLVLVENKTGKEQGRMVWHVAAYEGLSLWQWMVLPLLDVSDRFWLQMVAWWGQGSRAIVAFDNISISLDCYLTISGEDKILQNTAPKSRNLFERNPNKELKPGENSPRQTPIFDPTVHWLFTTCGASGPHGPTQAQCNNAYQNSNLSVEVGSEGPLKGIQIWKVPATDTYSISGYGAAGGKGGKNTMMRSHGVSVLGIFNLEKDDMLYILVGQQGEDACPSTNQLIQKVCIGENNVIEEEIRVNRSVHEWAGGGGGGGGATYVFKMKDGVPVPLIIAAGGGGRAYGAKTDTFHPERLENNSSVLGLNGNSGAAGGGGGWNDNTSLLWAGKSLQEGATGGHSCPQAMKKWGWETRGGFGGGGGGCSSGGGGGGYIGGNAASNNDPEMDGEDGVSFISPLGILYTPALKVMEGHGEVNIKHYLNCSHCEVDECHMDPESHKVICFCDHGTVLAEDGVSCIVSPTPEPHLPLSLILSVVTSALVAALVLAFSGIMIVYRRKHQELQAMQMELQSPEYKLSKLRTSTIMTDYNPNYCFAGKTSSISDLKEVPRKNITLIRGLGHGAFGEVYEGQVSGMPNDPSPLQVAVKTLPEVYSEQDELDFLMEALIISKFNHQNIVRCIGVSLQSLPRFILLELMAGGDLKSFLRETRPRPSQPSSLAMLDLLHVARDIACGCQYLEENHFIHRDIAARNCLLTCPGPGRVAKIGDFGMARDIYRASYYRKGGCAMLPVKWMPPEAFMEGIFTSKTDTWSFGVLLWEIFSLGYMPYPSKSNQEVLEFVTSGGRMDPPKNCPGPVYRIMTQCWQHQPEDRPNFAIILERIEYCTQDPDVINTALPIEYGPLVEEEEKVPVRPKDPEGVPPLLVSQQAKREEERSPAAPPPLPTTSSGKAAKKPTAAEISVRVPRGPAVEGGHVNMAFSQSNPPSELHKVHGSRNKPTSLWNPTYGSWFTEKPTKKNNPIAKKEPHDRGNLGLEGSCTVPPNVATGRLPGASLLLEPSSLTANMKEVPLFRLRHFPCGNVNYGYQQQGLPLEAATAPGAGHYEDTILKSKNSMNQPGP
DYRK1B, sequence (Q9Y463 whole entry): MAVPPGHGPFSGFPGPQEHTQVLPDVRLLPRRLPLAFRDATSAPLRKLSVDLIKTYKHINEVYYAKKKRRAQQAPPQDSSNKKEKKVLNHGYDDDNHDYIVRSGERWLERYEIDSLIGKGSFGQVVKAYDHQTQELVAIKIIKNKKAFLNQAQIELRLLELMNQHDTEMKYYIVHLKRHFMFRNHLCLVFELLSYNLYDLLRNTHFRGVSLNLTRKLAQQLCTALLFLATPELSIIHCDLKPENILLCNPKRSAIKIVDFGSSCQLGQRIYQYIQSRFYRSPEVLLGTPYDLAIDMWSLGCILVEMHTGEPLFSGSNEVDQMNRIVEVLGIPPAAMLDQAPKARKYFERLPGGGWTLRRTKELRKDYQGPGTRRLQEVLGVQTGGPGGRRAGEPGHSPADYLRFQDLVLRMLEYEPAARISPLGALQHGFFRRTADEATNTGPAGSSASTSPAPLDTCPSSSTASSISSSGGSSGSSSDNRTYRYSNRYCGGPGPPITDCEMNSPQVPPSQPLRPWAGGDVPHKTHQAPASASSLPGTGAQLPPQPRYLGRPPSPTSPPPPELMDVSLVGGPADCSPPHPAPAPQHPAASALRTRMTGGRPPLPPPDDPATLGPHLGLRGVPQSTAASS
ACVR2B, sequence (Q13705 whole entry): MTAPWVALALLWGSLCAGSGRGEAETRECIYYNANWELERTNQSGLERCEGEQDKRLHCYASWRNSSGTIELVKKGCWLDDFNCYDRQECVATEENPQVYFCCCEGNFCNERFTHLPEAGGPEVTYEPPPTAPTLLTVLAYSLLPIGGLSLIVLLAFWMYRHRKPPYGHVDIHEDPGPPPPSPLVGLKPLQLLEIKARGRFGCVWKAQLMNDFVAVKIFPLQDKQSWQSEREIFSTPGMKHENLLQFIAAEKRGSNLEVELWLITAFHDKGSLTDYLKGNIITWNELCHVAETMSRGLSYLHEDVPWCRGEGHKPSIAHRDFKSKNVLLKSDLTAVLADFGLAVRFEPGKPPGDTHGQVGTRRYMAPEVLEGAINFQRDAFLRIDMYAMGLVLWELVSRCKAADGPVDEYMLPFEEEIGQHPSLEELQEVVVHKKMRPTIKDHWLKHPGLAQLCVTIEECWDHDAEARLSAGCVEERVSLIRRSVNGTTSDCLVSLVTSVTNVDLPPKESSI
Description for DYRK1B: (§1) The kinase selectivity profile was performed by using the DiscoveRx KINOMEscan platform. […] Test compounds were prepared as 40× stocks in 100% DMSO and directly diluted into the assay. The results were defined as a percentage of signal between the negative (DMSO, 100% control) and the positive (control compound, 0% control) control, which was calculated as follows: percent control = [(test compound signal − positive control signal)/(negative control signal − positive control signal)] × 100.
Description for LTK: as §1

With `Cc1cnc2nc1Nc1cccc(c1)COCc1cc(ccc1OCCN1CCCC1)N2` [Compound 1], the remaining binding at 0.1 µM at ACVR2B was 96%; on LYN it was 92%; on ALK(C1156Y), 40%; at FLT3 it was 36%; at MYO3A, 100%; on LTK, 100%. Moreover, the remaining binding at 0.1 µM on DYRK1B was 100%.
